Patent US10131649B2, “Bicyclic compounds as pest control agents” (BAYER CROPSCIENCE AKTIENGESELLSCHAFT, priority 2014, dated 2018)
Like-named read-outs stand apart in the source and are kept apart here.

How the values were obtained:
[1] = system: larvae of the mustard beetle (Phaedon cochleariae); test: Phaedon cochleariae spray test; assay type: in vivo; details: application rate 500 g/ha; after 7 days; 100% = all beetle larvae killed
Procedure: Phaedon cochleariae—Spray Test
(§1) Solvent: • 78.0 parts by weight of acetone • 1.5 parts by weight of dimethylformamide
(§2) Emulsifier: alkylaryl polyglycol ether
(§3) To produce a suitable preparation of active compound, 1 part by weight of active compound is dissolved using the specified parts by weight of solvent and made up with water containing an emulsifier concentration of 1000 ppm until the desired concentration is attained. To produce further test concentrations, the formulation is diluted with emulsifier-containing water.
Discs of Chinese cabbage leaves (Brassica pekinensis) are sprayed with an active compound preparation of the desired concentration and, after drying, populated with larvae of the mustard beetle (Phaedon cochleariae).
After 7 days, the efficacy in % is determined. 100% means that all the beetle larvae have been killed; 0% means that no beetle larvae have been killed.

[2] = system: green peach aphid (Myzus persicae); test: Myzus persicae spray test (Chinese cabbage leaf discs); assay type: in vivo; details: foliar, 144 h, read-out: efficacy in %
Procedure: (§4) Myzus persicae—Spray Test
Solvent: • 78 parts by weight of acetone • 1.5 parts by weight of dimethylformamide
as §2, §3
Discs of Chinese cabbage leaves (Brassica pekinensis) infested by all stages of the green peach aphid (Myzus persicae) are sprayed with an active compound formulation of the desired concentration.
After 6 days, the efficacy in % is determined. 100% means that all the aphids have been killed; 0% means that no aphids have been killed.

[3] = system: caterpillars of the armyworm (Spodoptera frugiperda); test: Spodoptera frugiperda spray test; assay type: in vivo; details: application rate 500 g/ha; after 7 days; maize leaf discs; 100% = all caterpillars killed
Procedure: Spodoptera frugiperda—Spray Test
as §1, §2, §3
Leaf discs of maize (Zea mays) are sprayed with an active compound formulation of the desired concentration and, after drying, populated with caterpillars of the armyworm (Spodoptera frugiperda).
After 7 days, the efficacy in % is determined. 100% means that all the caterpillars have been killed; 0% means that no caterpillar has been killed.

[4] = log P by HPLC on reversed-phase columns (OECD Guideline 117), [a] acidic pH 2.7, [b] neutral pH 7.8; assay type: physicochemical; details: reversed-phase (C18) HPLC column
Procedure: The log P values were determined in accordance with OECD Guideline 117 (EC Directive 92/69/EEC) by HPLC (high-performance liquid chromatography) using reversed-phase (RP) columns (C18), by the following methods:
[a] The LC-MS determination in the acidic range is carried out at pH 2.7 with 0.1% aqueous formic acid and acetonitrile (contains 0.1% formic acid) as eluents; linear gradient from 10% acetonitrile to 95% acetonitrile.
[b] LC-MS determination in the neutral range is effected at pH 7.8 with 0.001 molar aqueous ammonium hydrogencarbonate solution and acetonitrile as eluents; linear gradient from 10% acetonitrile to 95% acetonitrile.
Calibration is carried out using unbranched alkan-2-ones (having 3 to 16 carbon atoms) with known log P values (log P values determined on the basis of the retention times by linear interpolation between two successive alkanones).

[5] = system: green peach aphid (Myzus persicae); test: Myzus persicae spray test (bell pepper plants); assay type: in vivo; details: application rate 4 ppm, after 6 days, 100% = all aphids killed
Procedure: as §4
Solvent: 7 parts by weight of dimethylformamide
as §2
as §3, with “water. If the addition of ammonium salts or/and penetrants is required, these are each added in a concentration of 1000 ppm to the formulation solution.” for “water.”
Bell pepper plants (Capsicum annuum) severely infested with the green peach aphid (Myzus persicae) are treated by spraying with the active compound formulation in the desired concentration.
After 6 days, the kill in % is determined. 100% means that all of the aphids have been killed; 0% means that none of the aphids have been killed.

[6] = system: engorged adult female cattle ticks (Boophilus microplus); test: Boophilus microplus injection test; assay type: in vivo; details: application rate 20 μg/animal, assessed after 7 days, 100% = no tick laid fertile eggs
Procedure: Boophilus microplus—Injection Test
(§5) Solvent: dimethyl sulphoxide
To produce a suitable preparation of active compound, 10 mg of active compound are mixed with 0.5 ml of solvent and the concentrate is diluted with solvent to the desired concentration.
1 μl of the active compound solution is injected into the abdomen of 5 engorged adult female cattle ticks (Boophilus microplus). The animals are transferred into dishes and kept in a climate-controlled room.
Efficacy is assessed after 7 days by laying of fertile eggs. Eggs which are not externally visibly fertile are stored in a climate-controlled cabinet until the larvae hatch after about 42 days. An efficacy of 100% means that none of the ticks has laid any fertile eggs; 0% means that all the eggs are fertile.

[7] = system: larvae of the red stomach worm (Haemonchus contortus); test: Haemonchus contortus test; assay type: in vivo; details: application rate 20 ppm; after 5 days; 100% = all larvae killed
Procedure: Haemonchus contortus—Test
as §5
(§6) To produce a suitable preparation of active compound, 10 mg of active compound are mixed with 0.5 ml of dimethyl sulfoxide and the concentrate is diluted with “Ringer's solution” to the desired concentration.
Vessels containing the active compound preparation of the desired concentration are populated with about 40 larvae of the red stomach worm (Haemonchus contortus).
(§7) After 5 days, the kill in % is determined. 100% means that all the larvae have been killed; 0% means that none of the larvae have been killed.

[8] = system: nematode larvae (Cooperia curticei); test: Cooperia curticei test; assay type: in vivo; details: application rate 20 ppm; after 5 days; 100% = all larvae killed
Procedure: as §5, §6
Vessels containing the active compound preparation of the desired concentration are populated with about 40 nematode larvae (Cooperia curticei).
as §7

[9] = system: southern root-knot nematode (Meloidogyne incognita); test: Meloidogyne incognita test; assay type: in vivo; details: application rate 20 ppm; after 14 days; lettuce; 100% = no galls found
Procedure: Meloidogyne incognita—Test
Solvent: 125.0 parts by weight of acetone
To produce a suitable active compound preparation, 1 part by weight of active compound is mixed with the stated amount of solvent and the concentrate is diluted with water to the desired concentration.
Vessels are filled with sand, active compound solution, an egg/larvae suspension of the southern root-knot nematode (Meloidogyne incognita) and lettuce seeds. The lettuce seeds germinate and the plants develop. The galls develop on the roots.
After 14 days, the nematicidal efficacy in % is determined by the formation of galls. 100% means that no galls were found; 0% means that the number of galls on the treated plants corresponds to the untreated control.

[10] = system: greenhouse red spider mite (Tetranychus urticae); test: Tetranychus urticae spray test, OP-resistant; assay type: in vivo; details: application rate 500 g/ha; after 6 days; bean leaf discs; 100% = all spider mites killed
Procedure: Tetranychus urticae—Spray Test, OP-Resistant
as §1, §2, §3
Discs of bean leaves (Phaseolus vulgaris) infested with all stages of the greenhouse red spider mite (Tetranychus urticae) are sprayed with an active compound formulation of the desired concentration.
After 6 days, the efficacy in % is determined. 100% means that all the spider mites have been killed; 0% means that no spider mites have been killed.

[11] = acidic pH 2.7, read-out: logP[a]
[12] = neutral pH 7.8, read-out: logP[b]

Structure (SMILES)	pest or weed control at 500 g/ha [2] [%]	chromatographic logP [4, 11]	chromatographic logP [4, 12]	further results
Fc1cncc(-n2cc3cc(C(F)(F)F)ccc3n2)c1 [Example 16]	100	–	–	efficacy in % [1]: 100%
CN(C)C(=O)c1ccc2nn(-c3cnn(C)c3)cc2c1 [Example 38]	–	–	–	efficacy in % [3]: 100%; efficacy in % [1]: 100%
Cc1cc(C)c(-c2ccc3nn(-c4cccnc4)cc3c2)cc1SCC(F)(F)F [Example 51, 5-[2,4-Dimethyl-5-(2,2,2-trifluoroethylsulphanyl)phenyl]-2-(3-pyridyl)indazole]	90	4.42	4.4	efficacy (kill in %) [5]: 100%
Cc1cc(F)c(-c2ccc3nn(-c4cccnc4)cc3c2)cc1[S+]([O-])CC(F)(F)F (stereo not shown) [Example 52, 5-[2-Fluoro-4-methyl-5-(2,2,2-trifluoroethylsulphinyl)phenyl]-2-(3-pyridyl)indazole]	100	2.8	2.74	efficacy (laying of fertile eggs) [6]: 100%
Cc1ccc(-c2ccc3nn(-c4cccnc4)cc3c2)nc1 [Example 65]	90	1.23	2.25	efficacy (kill in %) [7]: 80%; efficacy (kill in %) [8]: 90%
Clc1ccc(-c2ccc3nn(-c4cccnc4)cc3c2)nc1 [Example 67]	100	2.8	2.78	efficacy (kill in %) [7]: 80%; efficacy (kill in %) [8]: 80%
FC(F)(F)Cn1cc(-c2ccc3nn(-c4cccnc4)cc3c2)cn1 [Example 99, 2-(Pyridin-3-yl)-5-[1-(2,2,2-trifluoroethyl)-1H-pyrazol-4-yl]-2H-indazole]	90	2.12	2.12	nematicidal efficacy in % (formation of galls) [9]: 90%
Fc1cccc(-c2ccc3nn(-c4cccnc4)cc3c2)n1 [Example 104]	90	2.4	2.44	nematicidal efficacy in % (formation of galls) [9]: 90%
Cc1cc(F)c(C(=O)N(C)c2ccc3nn(-c4cnn(C)c4)cc3c2)cc1[S+]([O-])CC(F)(F)F (stereo not shown) [Example 117]	–	–	–	efficacy in % [10]: 90%
